In general, solubility refers to the dissolved amount per volume that the medium holds. Usually Vd stands for the apparent volume that relates the amount in the body to the concentration in plasma or blood. A high value points to wide distribution into tissue. By clearance is commonly meant the rate of elimination divided by the concentration. Low readings indicate a low capacity for elimination, high ones a high capacity for elimination. By half-life is commonly meant how long it takes for the measured level to halve. Low readings indicate rapid decline, high ones slow decline. As usually defined, the Cmax is the highest concentration seen after dosing. A word on the Tmax: it is the time at which the peak concentration occurs. Usually pIC50 stands for the negative decadic logarithm of the IC50, by convention in mol/L. The low end stands for a high IC50, the high end for a low IC50.

From article PMC4919555 (EBioMedicine, 2016) come the findings set out here.

For one series, the system named is GFP expressing MTB. The experiment in a line: Single-cell time-lapse imaging in microfluidic device. Format: cell-based, M. tuberculosis.
In a further series the test system is M. tuberculosis. The settings on record: chronic model, 25 mg/kg, 2-month treatment.
Series [1] relates to M. tuberculosis H37Rv. Nature of the series: microbe, parasite or virus in culture. The settings on record: Mycobacterium tuberculosis, read-out: Mtb MIC. The format is cell-based.
Series [2] concerns panel of Gram-positive and Gram-negative organisms. Nature of the series: General antimicrobial activity assay. Format: cell-based. The settings on record: read-out: Antibacterial panel (MIC).
The nature of the next series: physchem. The format is physicochemical. Particulars: pH 7.4.
The subject of a further series is HepG2 mammalian cells. Format: cell-based. Particulars: human.
Series [3] is classed as in vitro ADME. Particulars: mouse liver microsomes. (Liver microsomes are vesicles of endoplasmic reticulum, rich in cytochrome P450 enzymes.)
Series [4] is classed as in vitro ADME. The settings on record: human liver microsomes.
The target in the next series is human FAS (Homo sapiens, UniProt P49327). Nature of the series: Selectivity against human FAS. The format is biochemical.
In a further series the test system is M. bovis BCG. Format: cell-based.
Series [5] has as its target T1, InhA (Mycobacterium tuberculosis, UniProt P9WGR1). The settings on record: steady-state competition experiments.
The conditions of series [6]: mice.
Another series can be described thus: in vivo. The settings on record: female, C57BL/6j, mouse; for Vd / clearance / half-life: iv; for Cmax / Tmax: po.
The target of series [7] is T1, InhA. The experiment in a line: biochemical.
For series [8], the system named is M. tuberculosis H37Rv. The settings on record: acute model.
Series [9] deals with M. tuberculosis H37Rv. The experiment in a line: microbe, parasite or virus in culture. The format is cell-based. The settings on record: Mycobacterium tuberculosis, read-out: Mtb intracell MIC.
The target of another series is CYP 3A4 (Homo sapiens, UniProt P08684). The experiment in a line: biochemical.
For another series, the system named is Memb.; Nucleus; Mitoch. The format is cell-based.
The conditions of series [10]: genetic toxicity.
The target in the next series is hERG potassium channel (Homo sapiens, UniProt Q12809). The experiment in a line: cell-based.
Series [11] is classed as in vivo, C57BL/6 mice. Particulars: mice.
The mark [12] stands for this setting: 5 μM, propidium iodide end point.

Each structure is given as a SMILES string. pIC50: −log10 of the molar value. ≈ marks a conversion by molar mass, not a printed value. Where two headings read alike, the source gives them in different places.

T1 sequence (P9WGR1 whole entry, looked up): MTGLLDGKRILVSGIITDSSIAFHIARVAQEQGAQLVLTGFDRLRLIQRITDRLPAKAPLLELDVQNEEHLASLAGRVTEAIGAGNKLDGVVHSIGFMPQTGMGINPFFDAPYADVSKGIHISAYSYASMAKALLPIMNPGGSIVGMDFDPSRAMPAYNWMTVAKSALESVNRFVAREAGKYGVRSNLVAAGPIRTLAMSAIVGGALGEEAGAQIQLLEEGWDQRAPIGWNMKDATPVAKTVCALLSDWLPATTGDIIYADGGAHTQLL
Chain of CYP 3A4 (P08684 whole entry): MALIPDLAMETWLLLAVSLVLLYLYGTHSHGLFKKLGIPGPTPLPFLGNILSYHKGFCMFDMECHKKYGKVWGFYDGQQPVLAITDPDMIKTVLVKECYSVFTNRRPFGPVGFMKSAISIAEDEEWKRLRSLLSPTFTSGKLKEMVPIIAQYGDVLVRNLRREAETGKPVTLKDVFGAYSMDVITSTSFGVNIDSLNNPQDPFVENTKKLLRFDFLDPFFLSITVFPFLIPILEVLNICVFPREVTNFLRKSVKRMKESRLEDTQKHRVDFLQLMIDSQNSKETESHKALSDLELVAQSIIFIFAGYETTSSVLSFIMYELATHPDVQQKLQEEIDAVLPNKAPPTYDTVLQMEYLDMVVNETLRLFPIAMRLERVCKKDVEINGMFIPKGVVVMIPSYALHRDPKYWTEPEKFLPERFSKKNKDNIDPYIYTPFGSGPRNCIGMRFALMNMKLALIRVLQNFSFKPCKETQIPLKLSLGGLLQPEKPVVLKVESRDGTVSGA
Chain of human FAS (P49327 whole entry): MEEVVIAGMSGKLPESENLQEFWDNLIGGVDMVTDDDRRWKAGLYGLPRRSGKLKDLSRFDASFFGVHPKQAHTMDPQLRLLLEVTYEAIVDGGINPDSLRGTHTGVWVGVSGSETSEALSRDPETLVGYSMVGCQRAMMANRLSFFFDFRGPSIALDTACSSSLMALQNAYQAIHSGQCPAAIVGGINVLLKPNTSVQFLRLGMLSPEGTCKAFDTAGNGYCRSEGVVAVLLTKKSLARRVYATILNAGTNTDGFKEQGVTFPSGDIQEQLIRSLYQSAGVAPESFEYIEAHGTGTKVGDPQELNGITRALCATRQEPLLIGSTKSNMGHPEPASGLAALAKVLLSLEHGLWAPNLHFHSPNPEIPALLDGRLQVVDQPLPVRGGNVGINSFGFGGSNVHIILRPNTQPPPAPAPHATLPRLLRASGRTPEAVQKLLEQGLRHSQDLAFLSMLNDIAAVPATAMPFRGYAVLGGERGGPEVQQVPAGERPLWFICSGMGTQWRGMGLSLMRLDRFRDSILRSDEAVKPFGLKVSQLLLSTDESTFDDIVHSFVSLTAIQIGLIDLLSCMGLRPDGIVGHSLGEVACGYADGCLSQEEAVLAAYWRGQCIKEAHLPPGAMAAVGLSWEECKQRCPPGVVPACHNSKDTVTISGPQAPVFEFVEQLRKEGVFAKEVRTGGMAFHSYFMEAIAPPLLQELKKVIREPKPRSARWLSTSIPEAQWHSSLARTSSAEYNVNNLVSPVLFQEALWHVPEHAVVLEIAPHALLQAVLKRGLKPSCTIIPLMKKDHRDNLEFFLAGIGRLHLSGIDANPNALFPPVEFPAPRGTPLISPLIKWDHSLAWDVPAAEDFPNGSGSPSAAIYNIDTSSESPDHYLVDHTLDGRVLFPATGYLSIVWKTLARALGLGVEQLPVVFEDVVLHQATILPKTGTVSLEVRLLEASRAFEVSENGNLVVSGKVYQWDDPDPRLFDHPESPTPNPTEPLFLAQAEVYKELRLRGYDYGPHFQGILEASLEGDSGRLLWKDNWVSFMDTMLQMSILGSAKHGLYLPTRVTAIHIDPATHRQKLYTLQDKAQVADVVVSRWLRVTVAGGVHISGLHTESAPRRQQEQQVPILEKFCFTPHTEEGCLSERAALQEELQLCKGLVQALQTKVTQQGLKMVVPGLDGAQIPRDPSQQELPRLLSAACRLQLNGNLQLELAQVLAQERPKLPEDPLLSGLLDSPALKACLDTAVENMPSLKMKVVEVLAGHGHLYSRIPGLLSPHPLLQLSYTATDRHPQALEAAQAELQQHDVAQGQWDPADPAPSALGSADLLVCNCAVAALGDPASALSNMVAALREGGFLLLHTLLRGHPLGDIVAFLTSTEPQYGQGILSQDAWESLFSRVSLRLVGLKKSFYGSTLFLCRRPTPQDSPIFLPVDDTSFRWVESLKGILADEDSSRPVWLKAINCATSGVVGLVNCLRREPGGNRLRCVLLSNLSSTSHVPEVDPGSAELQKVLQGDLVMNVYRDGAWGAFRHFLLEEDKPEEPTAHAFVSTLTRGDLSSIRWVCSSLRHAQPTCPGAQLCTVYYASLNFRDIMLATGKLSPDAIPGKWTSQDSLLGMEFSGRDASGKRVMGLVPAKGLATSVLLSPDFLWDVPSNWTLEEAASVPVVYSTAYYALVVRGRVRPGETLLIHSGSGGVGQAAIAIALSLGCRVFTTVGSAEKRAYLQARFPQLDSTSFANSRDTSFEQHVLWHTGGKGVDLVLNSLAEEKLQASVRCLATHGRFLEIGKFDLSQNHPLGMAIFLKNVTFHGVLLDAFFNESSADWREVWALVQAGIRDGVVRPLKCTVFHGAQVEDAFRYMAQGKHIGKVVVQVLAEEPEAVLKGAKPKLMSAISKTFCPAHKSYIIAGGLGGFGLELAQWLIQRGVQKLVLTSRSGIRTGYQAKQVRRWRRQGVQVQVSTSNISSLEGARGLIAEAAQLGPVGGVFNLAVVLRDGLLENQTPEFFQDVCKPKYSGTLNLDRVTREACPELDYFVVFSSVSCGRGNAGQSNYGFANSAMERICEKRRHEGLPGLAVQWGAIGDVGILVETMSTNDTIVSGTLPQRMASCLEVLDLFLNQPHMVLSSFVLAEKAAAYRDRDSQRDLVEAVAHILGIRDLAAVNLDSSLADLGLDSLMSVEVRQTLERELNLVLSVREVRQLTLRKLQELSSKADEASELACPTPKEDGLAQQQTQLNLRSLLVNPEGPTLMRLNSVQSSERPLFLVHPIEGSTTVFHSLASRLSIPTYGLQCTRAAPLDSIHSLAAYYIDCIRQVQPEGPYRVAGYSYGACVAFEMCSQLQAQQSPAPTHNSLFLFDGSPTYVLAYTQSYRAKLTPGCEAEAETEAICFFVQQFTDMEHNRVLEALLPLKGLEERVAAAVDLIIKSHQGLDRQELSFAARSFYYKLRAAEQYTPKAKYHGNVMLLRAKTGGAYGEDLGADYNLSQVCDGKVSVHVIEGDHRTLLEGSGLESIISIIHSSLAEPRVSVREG
Chain of hERG potassium channel (Q12809 whole entry): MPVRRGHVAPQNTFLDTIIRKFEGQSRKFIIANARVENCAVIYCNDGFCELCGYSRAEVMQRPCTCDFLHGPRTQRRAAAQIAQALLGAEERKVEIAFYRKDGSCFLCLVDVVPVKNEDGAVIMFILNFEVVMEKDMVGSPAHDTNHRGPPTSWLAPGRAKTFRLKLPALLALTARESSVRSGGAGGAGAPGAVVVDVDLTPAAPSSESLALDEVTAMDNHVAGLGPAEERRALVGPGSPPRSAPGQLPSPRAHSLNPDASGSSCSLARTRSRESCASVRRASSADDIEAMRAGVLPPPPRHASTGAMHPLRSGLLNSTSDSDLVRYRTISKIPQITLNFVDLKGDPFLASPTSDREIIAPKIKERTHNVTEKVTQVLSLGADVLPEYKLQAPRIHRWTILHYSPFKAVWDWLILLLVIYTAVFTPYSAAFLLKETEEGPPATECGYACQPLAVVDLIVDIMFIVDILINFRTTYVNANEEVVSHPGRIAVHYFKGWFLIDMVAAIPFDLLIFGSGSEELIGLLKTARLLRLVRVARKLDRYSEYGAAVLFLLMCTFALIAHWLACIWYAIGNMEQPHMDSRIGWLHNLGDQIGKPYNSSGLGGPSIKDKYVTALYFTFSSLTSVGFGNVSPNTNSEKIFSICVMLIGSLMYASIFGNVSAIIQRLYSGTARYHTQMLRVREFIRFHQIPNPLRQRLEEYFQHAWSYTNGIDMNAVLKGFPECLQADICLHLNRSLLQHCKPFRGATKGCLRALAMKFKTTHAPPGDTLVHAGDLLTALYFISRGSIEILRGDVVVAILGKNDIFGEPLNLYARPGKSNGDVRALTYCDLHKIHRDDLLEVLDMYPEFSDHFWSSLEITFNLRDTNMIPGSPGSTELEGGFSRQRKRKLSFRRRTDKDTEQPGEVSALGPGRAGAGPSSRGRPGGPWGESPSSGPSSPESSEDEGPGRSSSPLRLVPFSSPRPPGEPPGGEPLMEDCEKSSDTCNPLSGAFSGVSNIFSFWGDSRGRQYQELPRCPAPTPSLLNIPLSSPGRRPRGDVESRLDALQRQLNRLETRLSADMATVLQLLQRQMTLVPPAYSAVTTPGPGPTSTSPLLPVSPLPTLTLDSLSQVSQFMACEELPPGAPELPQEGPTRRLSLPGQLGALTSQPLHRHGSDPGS

On to `NNC(=O)c1ccncc1` [INH, isoniazid], for which the “Total fraction of cells undergoing lysis” value with GFP expressing MTB (INH 0.5 µg/ml, N = 41 microcolonies) amounted to 42 ± 15%. Moreover, the “Clearance of bacilli (Log CFU)” value in the series on M. tuberculosis (P < 0.001) is “significant clearance of bacilli compared with the controls”; in the series on M. tuberculosis (P < 0.001, listed as isoniazid), “clear efficacy”.

On to `Cc1ccn(C(C)c2nnc(Nc3ccn(Cc4c(F)cccc4Cl)n3)s2)n1` (stereo not shown) [GSK613, N-(1-(2-chloro-6-fluorobenzyl)-1H-pyrazol-3-yl)-5-(1-(3-methyl-1H-pyrazol-1-yl)ethyl)-1,3,4-thiadiazol-2-amine], for which the MIC in the series on M. tuberculosis H37Rv [1] is no more than 1 µM. Moreover, the MIC in [2] was no less than 64 µg/mL. This compound displayed a solubility in the series “physchem” of 10 µM (≈ 4.18 µg/mL). For the same compound, the “HepG2 cytotoxicity Tox 50” value with HepG2 mammalian cells is greater than 100 µM. Further, the “In vitro Cli mouse” value in series [3] was 11.9 mL/min/g. For the same compound, the “In vitro Cli human” value in [4] was 2.9 mL/min/g. Besides, the “Activity against human FAS” value on human FAS was “inactive”. Also, the “Shift in MIC in strains overexpressing the target” value in the series on M. bovis BCG was no less than 4 fold. In addition, at InhA [5], the “Mode of inhibition versus NADH” value is reported as “uncompetitive with NADH” and the “Mode of inhibition versus fatty acid substrate” value is given as “competes with the fatty acid substrate”. The “DNAUC (dose normalized exposure)” value in series [6] (Table 1 hits) is listed as 5 ng·h/ml per mg/kg. In “in vivo” (0.5 mg/kg), this compound showed a Vd of 2.5 L/kg, a clearance of 157 mL/min/kg and a half-life of 18 min. In addition, in the series “in vivo” (50 mg/kg), the Cmax turned out to be 94.3 ng/mL and the Tmax worked out at 45 min. In addition, the pIC50 against InhA [7] is 8.15.

On to `COc1c(N2C[C@@H]3CCCN[C@@H]3C2)c(F)cc2c(=O)c(C(=O)O)cn(C3CC3)c12` [moxifloxacin, reference compound], for which the Bacterial load reduction in the series with M. tuberculosis H37Rv [8] (30 mg/kg) is reported as 4 log10 colony forming units (CFU) per lung.

On to `Cc1csc([C@](C)(O)c2nnc(Nc3ccn(Cc4csc(C)n4)n3)s2)n1` [GSK693, (S)-1-(4-methylthiazol-2-yl)-1-(5-((1-((2-methylthiazol-4-yl)methyl)-1H-pyrazol-3-yl)amino)-1,3,4-thiadiazol-2-yl)ethanol], for which the MIC with M. tuberculosis H37Rv [1] was 0.2 µM (≈ 0.0839 µg/mL). Further, the concentration in solution in the series “physchem” (solubility) came to 413 µM (≈ 173 µg/mL). The “HepG2 cytotoxicity Tox 50” value in the series on HepG2 mammalian cells is greater than 50 µM. For the same compound, the “In vitro Cli mouse” value in [3] was determined as 2.1 mL/min/g. In addition, the “In vitro Cli human” value in [4] was 0.2 mL/min/g. In the series on M. tuberculosis H37Rv [9], the MIC worked out at 0.2 µM (≈ 0.0839 µg/mL). The compound further showed a pIC50 against CYP 3A4 (CYP 3A4 IC50 VG, VG substrate) of 4.60. This compound also gave a pIC50 on CYP 3A4 (CYP 3A4 IC50 VR, VR substrate) of less than 4.30. The “Cell Health (Memb.; Nucleus; Mitoch. )” value in the series with Memb.; Nucleus; Mitoch. was greater than 199.5 µM. Also, the Ames test entry in series [10] is reported as “Negative”. On hERG potassium channel, the pIC50 is less than 4.30. For the same compound, the “Total fraction of cells undergoing lysis” value in the series with GFP expressing MTB (5 μM GSK693 for 10 days, N = 32 microcolonies) is listed as 53 ± 20%. Also, the “Regrowth after washout of the drug” value in the series on GFP expressing MTB (5 μM for 10 days, washout 7 days) was “None of the intact bacteria exhibited regrowth”. Also, in the series with GFP expressing MTB (setting [12]), the “Intact cells PI-positive after exposure” value was “About 22%” and the “Intact cells still able to exclude PI” value is 78%. In addition, the “Maximal no lethal dose (MNLD)” value in series [11] was “higher than 1000 mg/kg”. The same compound came in with a DNAUC in series [6] (Table 3 lead) of 935.8 ng·h/ml per mg/kg. The Bacterial load reduction with M. tuberculosis H37Rv [8] (100 mg/kg oral) is given as 4 log10 colony forming units (CFU) per lung. In addition, in the series with M. tuberculosis H37Rv [8] (oral 30, 100 and 300 mg/kg, P < 0.001), the “Clearance of bacilli (Log CFU)” value is listed as “significant clearance of bacilli compared with the controls”. In the series “in vivo” (4 mg/kg), this compound showed a Vd of 2.58 L/kg, a clearance of 83 mL/min/kg and a half-life of 56.4 min. For the same compound, in “in vivo” (100 mg/kg), the Cmax was 37300 ng/mL and the Tmax came to 25.2 min. On InhA [7], this compound showed a negative-log IC50 (pIC50) of 8.15.
